Experimental data from patent US9833497B2, “Human originated EGF domain proteins and use of the same” (CHENGDU SOURCEBIO LIMITED-LIABILITY COMPANY, priority 2013, dated 2017).

Experiments:
Type in all cases: cell-based
E. coli DH5α = test: Antibacterial activity: MIC and growth curve against E. coli DH5α in 96-well plate; conditions: minimal inhibitory concentration against E. coli DH5α; 96-well plate, 5×10^5 CFU/mL, 37° C., judged after 8 h
Summary of the method: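 Log-phase DH5α (OD600 about 0.5, 37° C, 185 rpm in LB) was pelleted, resuspended in fresh LB and seeded at 5×10^5 CFU/mL with recombinant protein at 50, 25 and 12.5 μg/mL (two-fold series), in triplicate. Plates were shaken at 175 rpm, 37° C, and OD600 was read every 30 min. MIC was the lowest concentration with no growth.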

E. coli BL21 = test: MIC against Gram-negative bacteria: E. coli BL21
Summary of the method: (§1)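 Broth microdilution, LB medium, final inoculum 5×10^5 CFU/mL from McFarland 0.5 cultures. Recombinant human EGF domain proteins tested in two-fold steps, n=3. MIC: lowest concentration, no growth.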

Pseudomonas aeruginosa = test: MIC against Gram-negative bacteria: Pseudomonas aeruginosa
Summary of the method: as §1

Klebsiella pneumonia = test: MIC against Gram-negative bacteria: Klebsiella pneumonia
Summary of the method: as §1

Enterobacter cloacae = test: MIC against Gram-negative bacteria: Enterobacter cloacae
Summary of the method: as §1

Aeromonas hydrophila = test: MIC against Gram-negative bacteria: Aeromonas hydrophila
Summary of the method: as §1

Citrobacter diversus = test: MIC against Gram-negative bacteria: Citrobacter diversus
Summary of the method: as §1

Moraxella catarrhalis = test: MIC against Gram-negative bacteria: Moraxella catarrhalis
Summary of the method: as §1

Proteus mirabilis = test: MIC against Gram-negative bacteria: Proteus mirabilis
Summary of the method: as §1

Proteus vulgaris = test: MIC against Gram-negative bacteria: Proteus vulgaris
Summary of the method: as §1

Serratia marcescens = test: MIC against Gram-negative bacteria: Serratia marcescens
Summary of the method: as §1

[1] = 96-well plate, 5×10^5 CFU/mL, 37° C., 10 h
[2] = 10 h cultivation at 37° C., 5×10^5 CFU/mL, two-fold serial dilution

Substance: PRT705 (LDDSCKLTCENGGRCILNEKGDLRCHCWPSYSGE; listed as Homo sapiens)
- MIC (E. coli DH5α): 25 µg/mL
- MIC E. coli BL21 (E. coli BL21; [1]): 50 µg/mL
- MIC P. aeruginosa (Pseudomonas aeruginosa; [1]): 12.5 µg/mL
- MIC K. pneumonia (Klebsiella pneumonia; [1]): 50 µg/mL
- MIC E. cloacae (Enterobacter cloacae; [1]): 12.5 µg/mL
- MIC A. hydrophila (Aeromonas hydrophila; [1]): 25 µg/mL
- MIC C. diversus (Citrobacter diversus; [1]): 100 µg/mL
- MIC M. catarrhalis (Moraxella catarrhalis; [1]): 25 µg/mL
- MIC P. mirabilis (Proteus mirabilis; [1]): 50 µg/mL
- MIC P. vulgaris (Proteus vulgaris; [1]): 12.5 µg/mL
- MIC S. marcescens (Serratia marcescens; [1]): 50 µg/mL

Substance: PRT805 (FGQNCSQDCPCHHGGQCDHVTGQCHCTAGYMGDRCQ; listed as Homo sapiens)
- MIC (E. coli DH5α): 12.5 µg/mL
- MIC (μg/mL) E. coli BL21 (E. coli BL21; E. coli BL21, 10 h cultivation at 37° C., 5×10^5 CFU/mL): 50 µg/mL
- MIC (μg/mL) P. aeruginosa (Pseudomonas aeruginosa; P. aeruginosa, 10 h cultivation at 37° C., 5×10^5 CFU/mL): 12.5 µg/mL
- MIC (μg/mL) K. pneumonia (Klebsiella pneumonia; K. pneumonia, 10 h cultivation at 37° C., 5×10^5 CFU/mL): 12.5 µg/mL
- MIC (μg/mL) E. cloacae (Enterobacter cloacae; E. cloacae, 10 h cultivation at 37° C., 5×10^5 CFU/mL): 12.5 µg/mL
- MIC (μg/mL) A. hydrophila (Aeromonas hydrophila; A. hydrophila, 10 h cultivation at 37° C., 5×10^5 CFU/mL): 12.5 µg/mL
- MIC (μg/mL) C. diversus (Citrobacter diversus; C. diversus, 10 h cultivation at 37° C., 5×10^5 CFU/mL): 12.5 µg/mL
- MIC (μg/mL) M. catarrhalis (Moraxella catarrhalis; M. catarrhalis, 10 h cultivation at 37° C., 5×10^5 CFU/mL): 50 µg/mL
- MIC (μg/mL) P. mirabilis (Proteus mirabilis; P. mirabilis, 10 h cultivation at 37° C., 5×10^5 CFU/mL): 12.5 µg/mL
- MIC (μg/mL) P. vulgaris (Proteus vulgaris; P. vulgaris, 10 h cultivation at 37° C., 5×10^5 CFU/mL): 50 µg/mL
- MIC (μg/mL) S. marcescens (Serratia marcescens; S. marcescens, 10 h cultivation at 37° C., 5×10^5 CFU/mL): 12.5 µg/mL

Substance: PRT462 (DVDECLEGLDDCHYNQLCENTPGGHRCSCPRGYRMQGPS; listed as Homo sapiens)
- MIC (E. coli DH5α): 12.5 µg/mL
- MIC against E. coli BL21 (E. coli BL21; [1]): 12.5 µg/mL
- MIC against P. aeruginosa (Pseudomonas aeruginosa; [1]): 100 µg/mL
- MIC against K. pneumonia (Klebsiella pneumonia; [1]): 12.5 µg/mL
- MIC against E. cloacae (Enterobacter cloacae; [1]): 12.5 µg/mL
- MIC against A. hydrophila (Aeromonas hydrophila; [1]): 12.5 µg/mL
- MIC against C. diversus (Citrobacter diversus; [1]): 12.5 µg/mL
- MIC against M. catarrhalis (Moraxella catarrhalis; [1]): 50 µg/mL
- MIC against P. mirabilis (Proteus mirabilis; [1]): 25 µg/mL
- MIC against P. vulgaris (Proteus vulgaris; [1]): 12.5 µg/mL
- MIC against S. marcescens (Serratia marcescens; [1]): 25 µg/mL

Substance: PRT729 (GSNACNQPTHPNGDCSHFCFPVPNFQRVCGCPYGMRLASNHLTCE; listed as Homo sapiens)
- MIC (E. coli DH5α): 12.5 µg/mL
- MIC E. coli BL21 (E. coli BL21; [1]): 25 µg/mL
- MIC P. aeruginosa (Pseudomonas aeruginosa; [1]): 12.5 µg/mL
- MIC K. pneumonia (Klebsiella pneumonia; [1]): 25 µg/mL
- MIC E. cloacae (Enterobacter cloacae; [1]): 12.5 µg/mL
- MIC A. hydrophila (Aeromonas hydrophila; [1]): 25 µg/mL
- MIC C. diversus (Citrobacter diversus; [1]): 12.5 µg/mL
- MIC M. catarrhalis (Moraxella catarrhalis; [1]): 25 µg/mL
- MIC P. mirabilis (Proteus mirabilis; [1]): 12.5 µg/mL
- MIC P. vulgaris (Proteus vulgaris; [1]): 25 µg/mL
- MIC S. marcescens (Serratia marcescens; [1]): 50 µg/mL

Substance: PRT118 (DVDECVGPGGPLCDSLCFNTQGSFHCGCLPGWVLAPNGVSCT; listed as Homo sapiens)
- MIC (E. coli DH5α): 12.5 µg/mL
- MIC (μg/mL) E. coli BL21 (E. coli BL21; E. coli BL21, 96-well plate, 5×10^5 CFU/mL, 37° C., 10 h): 12.5 µg/mL
- MIC (μg/mL) P. aeruginosa (Pseudomonas aeruginosa; Pseudomonas aeruginosa, 96-well plate, 5×10^5 CFU/mL, 37° C., 10 h): 12.5 µg/mL
- MIC (μg/mL) K. pneumonia (Klebsiella pneumonia; Klebsiella pneumonia, 96-well plate, 5×10^5 CFU/mL, 37° C., 10 h): 12.5 µg/mL
- MIC (μg/mL) E. cloacae (Enterobacter cloacae; Enterobacter cloacae, 96-well plate, 5×10^5 CFU/mL, 37° C., 10 h): 12.5 µg/mL
- MIC (μg/mL) A. hydrophila (Aeromonas hydrophila; Aeromonas hydrophila, 96-well plate, 5×10^5 CFU/mL, 37° C., 10 h): 12.5 µg/mL
- MIC (μg/mL) C. diversus (Citrobacter diversus; Citrobacter diversus, 96-well plate, 5×10^5 CFU/mL, 37° C., 10 h): 12.5 µg/mL
- MIC (μg/mL) M. catarrhalis (Moraxella catarrhalis; Moraxella catarrhalis, 96-well plate, 5×10^5 CFU/mL, 37° C., 10 h): 25 µg/mL
- MIC (μg/mL) P. mirabilis (Proteus mirabilis; Proteus mirabilis, 96-well plate, 5×10^5 CFU/mL, 37° C., 10 h): 12.5 µg/mL
- MIC (μg/mL) P. vulgaris (Proteus vulgaris; Proteus vulgaris, 96-well plate, 5×10^5 CFU/mL, 37° C., 10 h): 25 µg/mL
- MIC (μg/mL) S. marcescens (Serratia marcescens; Serratia marcescens, 96-well plate, 5×10^5 CFU/mL, 37° C., 10 h): 12.5 µg/mL

Substance: PRT1040 (AAHPCVRAPCAHGGSCRPRKEGYDCDCPLGFEGLHCQ; listed as Homo sapiens)
- MIC (E. coli DH5α): 12.5 µg/mL
- MIC (E. coli BL21; E. coli BL21, 10 h cultivation at 37° C.): 50 µg/mL
- MIC (Pseudomonas aeruginosa; P. aeruginosa, 10 h cultivation at 37° C.): 50 µg/mL
- MIC (Klebsiella pneumonia; K. pneumonia, 10 h cultivation at 37° C.): 25 µg/mL
- MIC (Enterobacter cloacae; E. cloacae, 10 h cultivation at 37° C.): 50 µg/mL
- MIC (Aeromonas hydrophila; A. hydrophila, 10 h cultivation at 37° C.): 12.5 µg/mL
- MIC (Citrobacter diversus; C. diversus, 10 h cultivation at 37° C.): 50 µg/mL
- MIC (Moraxella catarrhalis; M. catarrhalis, 10 h cultivation at 37° C.): 25 µg/mL
- MIC (Proteus mirabilis; P. mirabilis, 10 h cultivation at 37° C.): 50 µg/mL
- MIC (Proteus vulgaris; P. vulgaris, 10 h cultivation at 37° C.): 25 µg/mL
- MIC (Serratia marcescens; S. marcescens, 10 h cultivation at 37° C.): 50 µg/mL

Substance: PRT1154 (DGTACGYNTCRNGGECTVNGTTFSCRCLPDWAGNTCN; listed as Homo sapiens)
- MIC (E. coli DH5α): 50 µg/mL
- MIC E. coli BL21 (E. coli BL21; [2]): 12.5 µg/mL
- MIC P. aeruginosa (Pseudomonas aeruginosa; [2]): 50 µg/mL
- MIC K. pneumonia (Klebsiella pneumonia; [2]): 12.5 µg/mL
- MIC E. cloacae (Enterobacter cloacae; [2]): 25 µg/mL
- MIC A. hydrophila (Aeromonas hydrophila; [2]): 100 µg/mL
- MIC C. diversus (Citrobacter diversus; [2]): 12.5 µg/mL
- MIC M. catarrhalis (Moraxella catarrhalis; [2]): 12.5 µg/mL
- MIC P. mirabilis (Proteus mirabilis; [2]): 12.5 µg/mL
- MIC P. vulgaris (Proteus vulgaris; [2]): 12.5 µg/mL
- MIC S. marcescens (Serratia marcescens; [2]): 12.5 µg/mL
